We go through 2 compounds from paper PMC12860872, “Preclinical evaluation of DOTAGA.Glu.(FAPI)2 and DO3A.Glu.(FAPI)2 as theranostics with human dosimetry extrapolation to lutetium-177 and terbium-161 analogs” (European Journal of Nuclear Medicine and Molecular Imaging, 2025).

The test system of the series is PC3-mice. Description: Dosimetry in mice (nTACs, effective half-lives, TIAC/g). Particulars: for Effective half life: Tumor: nTACs. It counts as in vivo, mouse. How it is done:
(n = 3). The %I.A./g of tissue was calculated for liver, lungs, stomach, spleen, pancreas, kidneys, intestines, bone, muscle, salivary glands, heart wall, blood, tumor. To estimate the absolute activity in each source organ, the individual %I.A./g values were multiplied by the corresponding organ mass derived from the standard 25 g MOBY mouse phantom, yielding in the normalized source organ activities (nA) per time point and animal.
Following Cicone et al., the nA values for source organs were corrected to account for the fraction of administered activity sequestered by the tumor, as described in more detail in the dosimetry section of the supplemental data. According to the MIRD formalism, time-integrated activity coefficients (TIACs) were derived by integrating the normalized time-activity curves (nTACs), which were fitted using the bi-exponential functions. TIACs were calculated by fitting the nTACs with the bi-exponential functions and performing time integration in MATLAB. Additionally, mass-normalized TIACs (TIAC/g) were derived using organ masses from the standard 25 g MOBY mouse phantom (Supplemental data).
Biodistribution kinetics for [177Lu]Lu-DOTAGA.Glu.(FAPI)2 and [177Lu]Lu-DO3A.Glu.(FAPI)2 were assessed by ex vivo quantification of the accumulated radioactivity in source organs using a calibrated gamma counter at 4, 24, 48, 72, and 96 hours p.i. (n=3). The percentage of injected activity per gram of tissue (%I.A./g) was calculated, as described above, for a comprehensive panel of tissues, including liver, lungs, stomach, spleen, pancreas, kidneys, intestines, bone, muscle, salivary glands, heart wall, blood, and tumor. To estimate the absolute activity in each source organ, the individual %I.A./g values was multiplied by the corresponding organ mass derived from the standard 25 g MOBY mouse phantom, which provides high-resolution anatomical reference data for the murine models (28). […] The actual activity measurements were referred to the gamma counter measurement time (i.e. no physical decay correction to the administration time was applied). For each organ and time point, the mean nA was subsequently calculated across the three animals.
As outlined by Cicone et al., (1) the nA values for source organs were corrected to account for the fraction of administered activity sequestered by the tumor by redistributing the tumor nA (nAtumor) to organs according to the formula: […]
Where nAWB is the nA measured in the whole body. This adjustment was implemented to facilitate the extrapolation of absorbed dose data from mice to humans, considering that the tumor "sink effect" - prominent in murine models - is generally negligible in human subjects. In radiopharmaceutical dosimetry using tumor-bearing mice, the “tumor sink” effect refers to the phenomenon where large or highly avid tumors absorb a significant portion of the injected radiotracer, reducing its availability to normal organs. This can lead to artificially low uptake measurements in healthy tissues, which may not reflect what would occur in humans with smaller tumors or lower tumor burden. To correct for this, dosimetry calculations often include a "tumor sink correction" that adjusts normal organ uptake values to account for the radiotracer sequestered by the tumor, ensuring more accurate and clinically relevant dose estimates.
According to the MIRD formalism, for each source organ, time-integrated activity coefficients (TIACs) were derived by integrating the normalized time-activity curves (nTACs), which were fitted using the bi-exponential functions. The integration of the fitted nTACs was extended to infinity for organs in which the effective half-life of the slower bi-exponential component (tslow) was shorter than the physical half-life of lutetium-177 (tslow < tphys). […]

[1] abbreviates: PC3-mice, nTACs corrected for tumor sink.

On to `N#C[C@@H]1CC(F)(F)CN1C(=O)CNC(=O)c1ccnc2ccc(OCCCCNC(=O)CC[C@H](NC(=O)CCC(C(=O)O)N3CCN(CC(=O)[O-])CCN(CC(=O)[O-])CCN(CC(=O)[O-])CC3)C(=O)NCCCCOc3ccc4nccc(C(=O)NCC(=O)N5CC(F)(F)C[C@H]5C#N)c4c3)cc12.[177Lu+3]` (stereo partly shown) [[^177Lu]Lu-DOTAGA.Glu.(FAPI)2], for which, for the setting “Mouse”, the “Liver TIAC/g, times higher than for [177Lu]Lu-DO3A.Glu.(FAPI)2” value came out at 2.7 times; the “TIAC/g Bones” value is given as 6.65 ± 0.39 h/g; the “TIAC/g Heart contents” value turned out to be 0.11 ± 0.005 h/g; the “TIAC/g Kidneys” value is 0.39 ± 0.02 h/g. Further, for the setting “Mouse”, the “TIAC/g Liver” value worked out at 9.65 ± 0.82 h/g, the “TIAC/g Pancreas” value is on record as 0.29 ± 0.01 h/g, the “TIAC/g Rest of the body” value was determined as 10.75 ± 0.68 h/g and the “TIAC/g Salivary glands” value was found to be 0.36 ± 0.01 h/g. Also, under “Mouse”, the “TIAC/g Tumor” value stood at 1.19 ± 0.16 h/g. Moreover, the “Effective half life: Tumor” value (PC3-mice) is 39.1 ± 1.1 h. Further, under setting [1], the “Effective half life: Bones” value was determined as 30.9 ± 0.5 h, the “Effective half life: Heart content” value turned out to be 12.5 ± 0.1 h, the “Effective half life: Kidney” value worked out at 50.1 ± 3.1 h and the “Effective half life: Lung” value was 19.9 ± 0.6 h. Also, under setting [1], the “Effective half life: Pancreas” value stood at 40 ± 14.2 h, the “Effective half life: Salivary glands” value came to 52.1 ± 14.9 h and the “Effective half life: Small Intestine” value was determined as 25.4 ± 0.9 h.

Take `N#C[C@@H]1CC(F)(F)CN1C(=O)CNC(=O)c1ccnc2ccc(OCCCCNC(=O)CC[C@H](NC(=O)CN3CCN(CC(=O)[O-])CCN(CC(=O)[O-])CCN(CC(=O)[O-])CC3)C(=O)NCCCCOc3ccc4nccc(C(=O)NCC(=O)N5CC(F)(F)C[C@H]5C#N)c4c3)cc12.[177Lu+3]` [[^177Lu]Lu-DO3A.Glu.(FAPI)2]: under “Mouse”, the “TIAC/g Bones” value is given as 3.82 ± 0.12 h/g, the “TIAC/g Heart contents” value is recorded as 0.12 ± 0.003 h/g, the “TIAC/g Kidneys” value was 0.20 ± 0.01 h/g and the “TIAC/g Liver” value was 3.47 ± 0.14 h/g. Besides, for the setting “Mouse”, the “TIAC/g Pancreas” value was 0.20 ± 0.01 h/g, the “TIAC/g Rest of the body” value stood at 10.77 ± 0.32 h/g, the “TIAC/g Salivary glands” value is on record as 0.25 ± 0.02 h/g and the “TIAC/g Tumor” value came to 1.61 ± 0.2 h/g. Besides, the “Effective half life: Tumor” value (PC3-mice) was found to be 51 ± 12.6 h. For the same compound, under setting [1], the “Effective half life: Bones” value turned out to be 23.3 ± 1.4 h, the “Effective half life: Heart content” value was determined as 12.8 ± 0.4 h, the “Effective half life: Kidney” value amounted to 22.3 ± 7.1 h and the “Effective half life: Liver” value worked out at 70.4 ± 2.9 h. In addition, under setting [1], the “Effective half life: Lung” value was 18.3 ± 4.4 h, the “Effective half life: Pancreas” value stood at 14.1 ± 3.2 h, the “Effective half life: Salivary glands” value stood at 11.8 ± 5.9 h and the “Effective half life: Small Intestine” value is 16.2 ± 4.5 h.
